Laboratory results as given in patent US20240182445A1 (ONO PHARMACEUTICAL CO., LTD., priority 2019, published 2024).

These molecules were tested against T1, human TREK-1 (Homo sapiens, UniProt O95069) (assay: TREK-1 Thallium (Tl+) flux assay, Method 1). Settings: TREK-1 Thallium (Tl+) flux assay, Method 1.
T1 construct: expressed in transfected cells
T1 sequence (O95069 1-426): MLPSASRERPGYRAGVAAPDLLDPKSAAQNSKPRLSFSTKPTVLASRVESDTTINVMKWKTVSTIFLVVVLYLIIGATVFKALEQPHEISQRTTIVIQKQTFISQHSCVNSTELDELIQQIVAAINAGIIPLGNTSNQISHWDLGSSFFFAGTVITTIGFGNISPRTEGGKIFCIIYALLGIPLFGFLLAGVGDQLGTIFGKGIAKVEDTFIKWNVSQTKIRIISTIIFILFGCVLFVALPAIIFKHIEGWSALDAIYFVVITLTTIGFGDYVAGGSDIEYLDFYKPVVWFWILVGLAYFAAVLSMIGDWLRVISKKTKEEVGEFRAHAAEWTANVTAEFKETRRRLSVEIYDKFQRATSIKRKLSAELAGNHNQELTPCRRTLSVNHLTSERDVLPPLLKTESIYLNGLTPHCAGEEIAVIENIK
Type: cell-based
Summary of the method: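 CHO-K1 cells stably expressing human TREK-1, loaded with Thallos dye, received compound or 0.3% DMSO vehicle for 10 min before thallium stimulus buffer. ΔRatio is fluorescence at 25 s after thallium addition over mean pre-addition fluorescence; % inhibition calculated from it.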

Question: `Cc1cc(OCc2ccccc2)ccc1NC(=O)c1c(Cl)cnn1CC1CN(C(=O)C2COCCO2)CCO1` (stereo not shown) [Compound 412, 1-((4-(1,4-dioxane-2-carbonyl)morpholin-2-yl)methyl)-N-(4-(benzyloxy)-2-methylphenyl)-4-chloro-1H-pyrazole-5-carboxamide] was tested. Which IC50 did it give?
Answer: Its IC50 is 3000 nM.

Question: `CC(=O)N1CCC(n2ncc(Cl)c2C(=O)Nc2ncc(-c3ccc(OC(F)F)cc3)cc2C)CC1` [Compound 421, 1-(1-acetylpiperidin-4-yl)-4-chloro-N-(5-(4-(difluoromethoxy)phenyl)-3-methylpyridin-2-yl)-1H-pyrazole-5-carboxamide] was tested. Which IC50 did it give?
Answer: Its IC50 is 4400 nM.

Question: For `Cc1cc(OCc2ccccc2)ccc1NC(=O)c1c(Cl)cnn1C1CCN(C(=O)C2CCC2)CC1` [Compound 402, N-(4-(benzyloxy)-2-methylphenyl)-4-chloro-1-(1-(cyclobutanecarbonyl)piperidin-4-yl)-1H-pyrazole-5-carboxamide], which IC50 is on record?
Answer: The IC50 was 2160 nM.

Question: Which IC50 does the source give for `COc1ccc(-c2cnc(NC(=O)c3c(Cl)cnn3C3CCN(C(=O)OC(C)(C)C)CC3)c(C)c2)c(C)c1` [Compound 403, tert-butyl 4-(4-chloro-5-((5-(4-methoxy-2-methylphenyl)-3-methylpyridin-2-yl)carbamoyl)-1H-pyrazol-1-yl)piperidine-1-carboxylate] here?
Answer: The IC50 was 2290 nM.

Question: With `Cc1cc(OCc2ccccc2)ccc1NC(=O)c1c(Cl)cnn1C1CCN(C(=O)C2CC2)CC1` [Compound 400, N-(4-(benzyloxy)-2-methylphenyl)-4-chloro-1-(1-(cyclopropanecarbonyl)piperidin-4-yl)-1H-pyrazole-5-carboxamide] as the molecule, how does the IC50 read?
Answer: The IC50 was 1780 nM.

Same assay, conditions: TREK-1 Thallium (Tl+) flux assay; no *^12 (Method 2) mark on these rows

Question: For `Cc1cc(C#Cc2cccc(F)c2)cnc1NC(=O)c1c(Cl)cnn1[C@H]1CCOC1` [Compound 333, (S)-4-chloro-N-(5-((3-fluorophenyl)ethynyl)-3-methylpyridin-2-yl)-1-(tetrahydrofuran-3-yl)-1H-pyrazole-5-carboxamide], which IC50 is on record?
Answer: Its IC50 is 670 nM.

Question: How did the IC50 turn out when `Cc1cc(C#Cc2ccccc2)cnc1NC(=O)c1c(Cl)cnn1C[C@@H]1CCN(C(=O)OC(C)(C)C)C[C@H]1F` [Compound 241, tert-butyl (3S,4S)-4-((4-chloro-5-((3-methyl-5-(phenylethynyl)pyridin-2-yl)carbamoyl)-1H-pyrazol-1-yl)methyl)-3-fluoropiperidine-1-carboxylate] was run?
Answer: The IC50 was 370 nM.

Question: For `Cc1cc(C#Cc2ccc(F)cc2)cnc1NC(=O)c1c(Cl)cnn1CCN1CCN(C(=O)C2COCCO2)CC1` (stereo not shown) [Compound 246, 1-(2-(4-(1,4-dioxane-2-carbonyl)piperazin-1-yl)ethyl)-4-chloro-N-(5-((4-fluorophenyl)ethynyl)-3-methylpyridin-2-yl)-1H-pyrazole-5-carboxamide], which IC50 is on record?
Answer: The IC50 was 390 nM.

Question: How did the IC50 turn out when `Cc1cc(C#Cc2ccc(F)cc2)cnc1NC(=O)c1c(Cl)cnn1C1CC2(CCN(C(=O)C3COCCO3)C2)C1` (stereo not shown) [Compound 310, 4-chloro-1-[6-(1,4-dioxane-2-carbonyl)-6-azaspiro[3.4]octan-2-yl]-N-{5-[(4-fluorophenyl)ethynyl]-3-methylpyridin-2-yl}-1H-pyrazole-5-carboxamide] was run?
Answer: Its IC50 is 580 nM.

Question: How did the IC50 turn out when `CC(C)(C)OC(=O)N[C@H]1C[C@H](n2ncc(Cl)c2C(=O)Nc2ncc(C#Cc3ccccc3)cc2F)C1` [Compound 214, tert-butyl (trans-3-(4-chloro-5-((3-fluoro-5-(phenylethynyl)pyridin-2-yl)carbamoyl)-1H-pyrazol-1-yl)cyclobutyl)carbamate] was run?
Answer: Its IC50 is 330 nM.

Question: `CC1(Cn2ncc(Cl)c2C(=O)Nc2ncc(C#Cc3ccccc3)cc2F)CCCO1` (stereo not shown) [Compound 279, 4-chloro-N-(3-fluoro-5-(phenylethynyl)pyridin-2-yl)-1-((2-methyltetrahydrofuran-2-yl)methyl)-1H-pyrazole-5-carboxamide] was tested. Which IC50 did it give?
Answer: The IC50 was 490 nM.

Question: Which IC50 does the source give for `N#CC1CC(n2ncc(Cl)c2C(=O)Nc2c(F)cc(C#Cc3ccccc3)cc2F)C1` (stereo not shown) [Compound 245, 4-chloro-1-(3-cyanocyclobutyl)-N-(2,6-difluoro-4-(phenylethynyl)phenyl)-1H-pyrazole-5-carboxamide] here?
Answer: The IC50 was 390 nM.

Question: Which IC50 does the source give for `Cc1cc(C#Cc2ccc(F)cc2)cnc1NC(=O)c1c(Cl)cnn1CC1C2CC1CN(C(=O)C(C)C)C2` (stereo not shown) [Compound 314, 4-chloro-N-(5-((4-fluorophenyl)ethynyl)-3-methylpyridin-2-yl)-1-((3-isobutyryl-3-azabicyclo[3.1.1]heptan-6-yl)methyl)-1H-pyrazole-5-carboxamide] here?
Answer: The IC50 was 590 nM.

Question: For `CC(=O)N1CC2CC(C1)C2Cn1ncc(Cl)c1C(=O)Nc1ncc(C#Cc2ccccc2)cc1C` (stereo not shown) [Compound 370, 1-((3-acetyl-3-azabicyclo[3.1.1]heptan-6-yl)methyl)-4-chloro-N-(3-methyl-5-(phenylethynyl)pyridin-2-yl)-1H-pyrazole-5-carboxamide], which IC50 is on record?
Answer: Its IC50 is 980 nM.

Same assay, conditions: TREK-1 Thallium (Tl+) flux assay; values without footnote *12 are Method 1

Question: Which IC50 does the source give for `CC(=O)N1CCC(n2ncc(Cl)c2C(=O)Nc2ncc(C#Cc3cccs3)cc2C)CC1` [Compound 19, 1-(1-acetylpiperidin-4-yl)-4-chloro-N-(3-methyl-5-(thiophen-2-ylethynyl)pyridin-2-yl)-1H-pyrazole-5-carboxamide] here?
Answer: Its IC50 is 60 nM.

Question: How did the IC50 turn out when `O=C(Nc1ncc(C#Cc2ccccc2)cc1F)c1c(Cl)cnn1-c1ccc2c(c1)OCCO2` [Compound 189, 4-chloro-1-(2,3-dihydrobenzo[b][1,4]dioxin-6-yl)-N-(3-fluoro-5-(phenylethynyl)pyridin-2-yl)-1H-pyrazole-5-carboxamide] was run?
Answer: The IC50 was 290 nM.

Question: `Cc1cc(C#Cc2ccccc2)cnc1NC(=O)c1c(Cl)cnn1C1CCN(C(=O)C2CC2)CC1` [Compound 149, 4-chloro-1-(1-(cyclopropanecarbonyl)piperidin-4-yl)-N-(3-methyl-5-(phenylethynyl)pyridin-2-yl)-1H-pyrazole-5-carboxamide] was tested. Which IC50 did it give?
Answer: The IC50 was 240 nM.

Question: How did the IC50 turn out when `Cc1cc(C#Cc2ccccc2)cnc1NC(=O)c1c(Cl)cnn1C1CCN(C(=O)C2COCCO2)C1` (stereo not shown) [Compound 80, 1-(1-(1,4-dioxane-2-carbonyl)pyrrolidin-3-yl)-4-chloro-N-(3-methyl-5-(phenylethynyl)pyridin-2-yl)-1H-pyrazole-5-carboxamide] was run?
Answer: The IC50 was 160 nM.

Question: Which IC50 does the source give for `CC(C)C(=O)N1CC2(CC(n3ncc(Cl)c3C(=O)Nc3ncc(C#Cc4ccccc4)cc3F)C2)C1` [Compound 182, 4-chloro-N-(3-fluoro-5-(phenylethynyl)pyridin-2-yl)-1-(2-isobutyryl-2-azaspiro[3.3]heptan-6-yl)-1H-pyrazole-5-carboxamide] here?
Answer: The IC50 was 280 nM.

Question: For `O=C(Nc1ncc(C#Cc2ccccc2)cc1F)c1c(Cl)cnn1C[C@@H]1CCOC1` [Compound 148, (S)-4-chloro-N-(3-fluoro-5-(phenylethynyl)pyridin-2-yl)-1-((tetrahydrofuran-3-yl)methyl)-1H-pyrazole-5-carboxamide], which IC50 is on record?
Answer: The IC50 was 240 nM.

Question: With `Cc1cc(C#Cc2cccs2)cnc1NC(=O)c1c(Cl)cnn1C1CCN(C(=O)C(C)C)CC1` [Compound 111, 4-chloro-1-(1-isobutyrylpiperidin-4-yl)-N-(3-methyl-5-(thiophen-2-ylethynyl)pyridin-2-yl)-1H-pyrazole-5-carboxamide] as the molecule, how does the IC50 read?
Answer: The IC50 was 200 nM.

Question: How did the IC50 turn out when `CC(C)(C)OC(=O)N1CCC(F)(Cn2ncc(Cl)c2C(=O)Nc2ncc(C#Cc3ccccc3)cc2F)CC1` [Compound 134, tert-butyl 4-((4-chloro-5-((3-fluoro-5-(phenylethynyl)pyridin-2-yl)carbamoyl)-1H-pyrazol-1-yl)methyl)-4-fluoropiperidine-1-carboxylate] was run?
Answer: The IC50 was 220 nM.
